This is an account of results in patent US8357673B2, “4-arylazo-3,5-diamino-pyrazole compounds and use thereof” (Univerzita Palackeho V Olomouci, priority 2004, dated 2013).

What is called IC50 is the point on the concentration scale where inhibition reaches its midpoint.

The test system of series [1] is K562 (human chronic myeloblastic leukemia). The series is described as follows: In vitro cytotoxicity, Calcein AM, 72 h. As to conditions: 72 h; for IC50: Calcein AM, triplicates, read-out: IC50 (μM) K562. The format is cell-based. How it is done: (§1) Tested drugs were added to the cell cultures in six different concentration and kept at 37° C. and 5% CO2 for three days.
(§2) The cells, cultured in DMEM (supplemented with 10% fetal calf serum, 4 mM glutamine, 100 IU/ml penicillin, 100 μg/ml streptomycin) in a humidified CO2 incubator at 37° C., were redistributed into 96-well microtitre plates (10.000 cells per well). After 12 h preincubation, tested compounds in six-fold dilutions were added. Treatment of cells with the tested compounds (in the 1-100 μM range) lasted for 72 h.

The test system of series [2] is MCF7 (human breast adenocarcinoma). The series is described as follows: In vitro cytotoxicity, Calcein AM, 72 h. The format is cell-based. As to conditions: 72 h; for IC50: Calcein AM, triplicates, read-out: IC50 (μM) MCF7. On the procedure: as §1, §2
Series [3] can be described thus: In vitro cytotoxicity, Calcein AM, 72 h. The conditions noted are these: human, at 100 μM. The format is cell-based, human. How it is done:
as §1, §2

The subject of series [4] is G 361 (human malignant melanoma). The series is described as follows: In vitro cytotoxicity, Calcein AM, 72 h. The format is cell-based. As to conditions: 72 h; for IC50: Calcein AM, triplicates, read-out: IC50 (μM) G361. On the procedure:
as §1, §2

The subject of series [5] is HOS (human osteogenic sarcoma). The series is described as follows: In vitro cytotoxicity, Calcein AM, 72 h. Type of series: cell-based. As to conditions: for IC50: Calcein AM, triplicates, read-out: IC50 (μM) HOS. How it is done: as §1, §2
The target of another series is T1, CDK1/cyclin B (Homo sapiens, UniProt P06493).
T1 construct: made in house; host or cells: Sf9 insect cells (baculovirus co-infection)
T1 sequence (P06493 whole entry): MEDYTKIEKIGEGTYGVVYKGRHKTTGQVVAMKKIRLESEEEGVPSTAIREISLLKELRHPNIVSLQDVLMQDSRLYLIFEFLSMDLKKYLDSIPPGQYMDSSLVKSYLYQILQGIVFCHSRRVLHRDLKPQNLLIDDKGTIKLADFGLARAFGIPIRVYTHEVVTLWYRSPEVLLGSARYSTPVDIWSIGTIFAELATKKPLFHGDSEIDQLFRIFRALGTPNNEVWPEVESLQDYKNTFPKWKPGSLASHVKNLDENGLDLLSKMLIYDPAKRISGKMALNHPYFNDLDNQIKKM
T1 sequence (P14635 whole entry partner): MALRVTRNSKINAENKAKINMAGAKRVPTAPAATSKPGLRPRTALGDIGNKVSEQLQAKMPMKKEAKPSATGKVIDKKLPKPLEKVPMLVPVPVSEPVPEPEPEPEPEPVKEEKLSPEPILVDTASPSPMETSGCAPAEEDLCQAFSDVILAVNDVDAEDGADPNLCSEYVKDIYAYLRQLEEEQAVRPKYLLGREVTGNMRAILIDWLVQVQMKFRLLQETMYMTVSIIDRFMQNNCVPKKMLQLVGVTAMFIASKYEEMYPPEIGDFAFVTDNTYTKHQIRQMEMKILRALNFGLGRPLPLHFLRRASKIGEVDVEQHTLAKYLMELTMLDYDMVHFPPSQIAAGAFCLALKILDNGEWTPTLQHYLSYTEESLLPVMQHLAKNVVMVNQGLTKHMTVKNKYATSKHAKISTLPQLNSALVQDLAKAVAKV
The series can be described thus: CDK1/cyclin B kinase inhibition assay (histone H1, [γ-33P]ATP). Type of series: biochemical. As to conditions: averaged from triplicates; 15 μM ATP. On the procedure:
(§3) CDK1/cyclin B and CDK2/cyclin E kinases were produced in Sf9 insect cells coinfected with appropriate baculoviral constructs. The cells were harvested 70 h post infection, incubated in lysis buffer (50 mM Tris pH 7.4, 150 mM NaCl, 5 mM EDTA, 20 mM NaF, 1% Tween 20, 1 mM DTT, 0.1 mM PMSF, 0.5 μg/ml leupeptine, 1 μg/ml aprotonine) for 30 min on ice and the soluble fraction was recovered by centrifugation at 20.000 g for 10 min. The enzymes were purified on NiNTA column (Qiagen), stored at 4° C. and used within a week. To carry out the enzyme inhibition assays under linear conditions, the final point test system for kinase activity measurement was used. Kinase was added to reaction mixture in such a way as to obtain linear activity with respect to the concentration of enzyme and with respect to time. For determination of kinase inhibition the reaction mixture contained 1 mg/ml histone H1 (type III-S, Sigma) in the presence of 15 μM ATP, 0.05 μCi [γ-^33P]ATP and the tested compound in a final volume of 10 μl; all in reaction buffer (50 mM HEPES, 10 mM MgCl2, 5 mM EGTA, 10 mM 2-glycerolphosphate, 1 mM NaF, 1 mM DTT, pH 7.4). After 20 min incubation, the reactions were stopped by the addition of 5 μl of a 3% H3PO4, aliquots were spotted on P-81 phosphocellulose (Whatman, USA) that was subsequently washed 3× with 5% H3PO4 and finally air dried. The measurements of kinase inhibition employed digital image analyzer BAS-1800 (Fujifilm, Japan). Kinase activity was usually expressed as a percentage of maximum activity. […] For the purpose of kinetic analysis, the activity was expressed as arbitrary units (AU) of digital image analyzer signal.

The target in the next series is T2, CDK2/cyclin E (Homo sapiens, UniProt P24941).
T2 construct: made in house; host or cells: Sf9 insect cells (baculovirus co-infection)
The series is described as follows: CDK2/cyclin E kinase inhibition assay (histone H1, [γ-33P]ATP). As to conditions: averaged from triplicates; 15 μM ATP. Type of series: biochemical. How it is done:
as §3

A further series concerns CDK1 and CDK2. The series is described as follows: CDK inhibition, for CDK1 and CDK2 together. The format is biochemical. On the procedure:
as §3, with “After 20 min incubation, the reactions were stopped by the addition of 5 μl of a 3% H3PO4, aliquots were spotted on P-81 phosphocellulose (Whatman, USA) that was subsequently washed 3× with 5% H3PO4 and finally air dried. The measurements of kinase inhibition employed digital image analyzer BAS-1800 (Fujifilm, Japan).” left out

The next series deals with CDK7 (Homo sapiens, UniProt P50613). As to conditions: Knockaert et al 2000, Cohen 2003; cited from earlier work.
Sequence of CDK7 (P50613 whole entry, species assumed): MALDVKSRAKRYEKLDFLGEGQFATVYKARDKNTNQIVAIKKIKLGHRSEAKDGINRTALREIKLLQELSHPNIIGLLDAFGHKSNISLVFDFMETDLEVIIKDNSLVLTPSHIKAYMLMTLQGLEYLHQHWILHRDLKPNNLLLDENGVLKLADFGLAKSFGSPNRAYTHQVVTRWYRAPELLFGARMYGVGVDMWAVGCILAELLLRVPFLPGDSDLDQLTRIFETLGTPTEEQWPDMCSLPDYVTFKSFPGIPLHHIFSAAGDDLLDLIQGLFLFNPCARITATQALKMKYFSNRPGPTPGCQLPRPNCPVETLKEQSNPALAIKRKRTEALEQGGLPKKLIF
Sequence of CDK7 (P51946 whole entry partner, species assumed): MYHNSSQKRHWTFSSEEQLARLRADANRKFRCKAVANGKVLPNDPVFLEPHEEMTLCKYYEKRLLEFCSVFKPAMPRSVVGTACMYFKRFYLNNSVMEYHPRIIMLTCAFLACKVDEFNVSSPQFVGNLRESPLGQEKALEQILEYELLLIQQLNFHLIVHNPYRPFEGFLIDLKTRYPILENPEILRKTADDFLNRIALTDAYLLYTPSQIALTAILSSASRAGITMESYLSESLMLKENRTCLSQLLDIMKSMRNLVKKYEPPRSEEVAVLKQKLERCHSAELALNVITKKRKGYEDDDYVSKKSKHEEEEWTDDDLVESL
The test system of a further series is MAPK1. As to conditions: Knockaert et al 2000, Cohen 2003; cited from earlier work.
A short description of the next series: in vitro. The format is cell-based. As to conditions: human. How it is done: The following cell lines were used: HELA (human cervical carcinoma), MCF7 (human breast adenocarcinoma), NIH 3T3 (mouse fibroblasts), HOS (human osteogenic sarcoma), HL 60 (human promyelocytic leukemia), G 361 (human malignant melanoma), K562 (human chronic myeloblastic leukemia), CEM (human lymphoblastoid leukaemia). Tested drugs were added to the cell cultures in six different concentration and kept at 37° C. and 5% CO2 for three days.
as §2, with “h. At the end of this period, the cells were fed for 1 h with Calcein AM and the fluorescence of the live cells was measured at 485 nm/538 nm (ex/em) with a Fluoroskan Ascent (Labsystems, Finland).” for “h.”

Where [6] appears, read: G 361 cells (human malignant melanoma), 72 h, read-out: % of viable cells G361.
Where [7] appears, read: HOS cells (human osteogenic sarcoma), read-out: % of viable cells HOS.
Setting [8] is: K562 cells (human chronic myeloblastic leukemia), 72 h, read-out: % of viable cells K562.
The mark [9] stands for this setting: MCF7 cells (human breast adenocarcinoma), 72 h, read-out: % of viable cells MCF7.

Structures are written as SMILES. Read-outs that look alike come from different tables or passages of the source.

Regarding `Nc1n[nH]c(N)c1N=Nc1ccccc1CO` [Compound 16b, 3,5-diamino-4-(2-hydroxymethyl)phenylazo-pyrazole], the IC50 in series [1] (Homo sapiens, K562) was above 100 µM; in series [2] (Homo sapiens, MCF7) it was above 100 µM; in series [4] (Homo sapiens, G-361), above 100 µM; in series [5] (Homo sapiens), above 100 µM; against CDK1/cyclin B it was 21 µM; against CDK2/cyclin E it was 17 µM. For the same compound, the viability at 72 h, 100 µM in series [3] (setting [6]) is 84%; in [3] (setting [7]) it was 87%; in series [3] (setting [8]), 86%; in series [3] (setting [9]) it was 51%.
Turning to `Nc1n[nH]c(N)c1N=Nc1cccc2c1CCCC2` [Compound 30b], the IC50 in series [1] was 55 ± 1 µM; in series [2], 81 ± 9 µM; in series [4] it was 77 ± 4 µM; in [5], 92 ± 5 µM; on CDK1/cyclin B, above 100 µM; against CDK2/cyclin E it was above 100 µM. In addition, the “% of viable cells K562” value in [1] (at 100 μM) is on record as “(26 ± 7) %”. Also, in [2] (at 100 μM), the “% of viable cells MCF7” value is “(39 ± 10%)”. In addition, in series [4] (at 100 μM), the “% of viable cells G361” value is reported as “(27 ± 5) %”. Besides, in series [5] (at 100 μM), the “% of viable cells HOS” value is listed as “(32 ± 6%)”. In addition, the “CDK inhibitory activity (in words)” value in the series on CDK1 and CDK2 is “only a weak impact on CDK activity”.
`CC[C@H](CO)Nc1nc(NCc2ccccc2)c2ncn(C(C)C)c2n1` [roscovitine]: the “effect on CDK7 (in words)” value on CDK7 is on record as “strong effect”. In the series on MAPK1, the “effect on MAPK1 (in words)” value is recorded as “strong effect”.
For the compound `Cn1cnc2c(NCc3ccccc3)nc(NCCO)nc21` [olomoucine, reference compound], the IC50 at 72 h in the series “in vitro” is above 100 µM.
Turning to `NCc1ccc(/N=N/c2c(N)n[nH]c2N)cc1` [Compound 17b, 3,5-diamino-4-(4-aminomethyl)phenylazo-pyrazole], the IC50 against CDK1/cyclin B and at CDK2/cyclin E was above 100 µM in each case. Moreover, the “CDK inhibitory activity (in words)” value in the series with CDK1 and CDK2 is listed as “low activity (almost zero)”.
Regarding `Nc1n[nH]c(N)c1/N=N/c1cccc(O)c1` [Compound 11b, 3,5-diamino-4-(3-hydroxy)phenylazo-pyrazole], the IC50 is above 100 µM in series [1] (Homo sapiens, K562); above 100 µM in series [2] (Homo sapiens, MCF7); above 100 µM in [4] (Homo sapiens, G-361); above 100 µM in series [5] (Homo sapiens); 6 µM against CDK1/cyclin B. The viability at 72 h, 100 µM in [3] (setting [6]) is 70%; in [3] (setting [7]) it was 83%; in [3] (setting [8]), 53%; in series [3] (setting [9]), 71%.
For `Nc1n[nH]c(N)c1N=Nc1ccccc1[N+](=O)[O-]` [Compound 7b, 3,5-diamino-4-(2-nitro)phenylazo-pyrazole], the IC50 in [1] (Homo sapiens, K562) was 100 ± 10 µM; in series [2] (Homo sapiens, MCF7), above 100 µM; in series [4] (Homo sapiens, G-361) it was above 100 µM; in [5] (Homo sapiens), above 100 µM; against CDK1/cyclin B, 2.6 µM; against CDK2/cyclin E, 6.1 µM. Further, the viability at 72 h, 100 µM is 58% in series [3] (setting [6]), 57% in series [3] (setting [7]), 48% in series [3] (setting [8]) and 62% in [3] (setting [9]).
Regarding `Nc1n[nH]c(N)c1/N=N/c1cccc([N+](=O)[O-])c1` [Compound 8b, 3,5-diamino-4-(3-nitro)phenylazo-pyrazole], the IC50 in [1] (Homo sapiens, K562) is 79 ± 6 µM; in [2] (Homo sapiens, MCF7), 65 ± 7 µM; in series [4] (Homo sapiens, G-361), above 100 µM; in series [5] (Homo sapiens) it was above 100 µM; at CDK1/cyclin B it was 4.8 µM. The viability at 72 h, 100 µM in series [3] (setting [6]) is 69%; in series [3] (setting [7]) it was 95%; in series [3] (setting [8]) it was 28%; in series [3] (setting [9]), 44%.
